Test results from patent US5872124A, “Treatment of diseases of the central nervous system using uric acid as a scavenger of peroxynitrite” (Thomas Jefferson University, priority 1996, dated 1999).

Assays:
[1] = Side-effects of PTIO in EAE; type: in vivo
Description: The biological half-life of carboxy-PTIO are estimated to be less than five minutes in the blood when injected i.v. or i.p. into either rats or mice. Approximately 75% of the PTIO administered to mice can be accounted for in excretions within 4 hours. Nevertheless, the clinical symptoms of animals subjected to the stimuli that induce EAE and treated with PTIO are clearly alleviated for at least 24 hours between doses. […] It is possible that the removal of a significant quantity of NO may reduce the amount of tissue damage to a level that the animal can cope with. However, we believe that it is possible that the transient reduction of NO accumulation in an inflammatory response may have more wide ranging effects for instance through the disturbance of regulatory circuits effecting the production of NO or one of the other related substances involved in immunopathology. […] Through its effects on the circulation, NO may play a role in facilitating access of MBP specific T cells to the brain which could be inhibited by PTIO. It is also conceivable that a PTIO derivative formed by its interaction with NO also has some protective effect. […]

[2] = tested on: experimental allergic encephalomyelitis (EAE), PLP immunization; test: Survival of SWXJ-14 mice with EAE; type: in vivo
Description: FIG. 14. Comparison of the survival of SWXJ-14 mice with EAE treated with PTIO and uric acid. SWXJ-mice were immunized with PLP in CFA as described for FIG. 12 and treated once daily with a 2 mg dose of uric acid or PTIO i.p. from day 5 to day 13, followed by two daily doses on day 14 and three daily doses thereafterward.
To more directly compare the action of PTIO and uric acid in EAE we have administered each of these agents in parallel to PLP-immunized SWXJ-14 mice. In these experiments the mice were immunized with PLP and treated with increasing doses of PTIO or uric acid beginning at day 5 after immunization.

Water solubility = type: physicochemical
[3] = tested on: experimental allergic encephalomyelitis (EAE), PLP immunization; test: Clinical severity of PLP-induced EAE in SWXJ-14 mice; type: in vivo; conditions: started 4-5 days after immunization with myelin antigens
Description: FIG. 2. Effect of daily administration of c-PTIO (carboxy-PTIO) on EAE in SWXJ-14 mice. EAE was induced in SWJX-14 mice by two subcutaneous immunizations (d.0 and d.7) of […] PLP in CFA over two injection sites. Mice (N=3) were treated beginning on day 5 post-immunization with 2 mg/mouse c-PTIO […] i.p. and was continued until day 16 post-immunization (day 0 being the day of first immunization). Mean severity scores were graded as detailed in Table 1.
FIG. 4. Effect of D609 on the development of EAE in SWXJ-14 mice. SWXJ-mice were immunized with PLP as detailed for FIG. 2. Mice (n=2) were treated i.p. with 1 mg/mouse D609 from day 5 through day 14 post-immunization. Mean severity scores were graded as detailed in Table 1.
FIG. 12. Effect of the administration of various doses of uric acid on EAE in SWXJ-14 mice. EAE was induced in SWXJ-14 mice by two subcutaneous immunizations (d.0 and 7) of […] PLP in CFA over two injection sites. Mice (n=5) were treated once daily, beginning on day 5 post-immunization, with the indicated doses of uric acid. Mean severity scores were graded as detailed in Table 1.
Induction of EAE in rats by adoptive transfer of MBP-specific T cells or in SJL or SWXJ-14 mice by immunization with MBP or PLP 139-151, a peptide derived from […] [8], results in variable disease. We have scored the clinical systems of EAE as tabulated below.
Severity scores and symptoms of Experimental Allergic
1 piloerection, tail weakness
3 hind limb weakness/paralysis
4 hind and forelimb paralysis
In FIG. 1, EAE was elicited in 11 week old female Lewis rats by the adoptive transfer of 20×10^6 cells of the MBP-specific line 5HGBP.G5 activated by stimulation with MBP and syngeneic APC 48 hours previously and NO levels measured 5 days after transfer. In SWXJ-14 mice, EAE was triggered by two subcutaneous immunizations (d.0 and 7) with 100 μg PLP in CFA over two injection sites, and NO levels measured 18 days later. Results expressed represent the mean values obtained from a minimum of 4 animals. Peak severity of the symptoms of EAE ranged from 2-3 for the rats and 4-5 for the mice. NO was semi-quantitated using spin trapping with DETC and EPR-spectroscopy as described previously.
Clinical symptoms manifest as an ascending paralysis approximately 13 days after immunization and the disease rapidly progresses to its fatal endpoint by day 16-20. […] NO levels in the brains and spinal cords of animals treated with a single daily dose of PTIO were semi-quantitated by spin trapping and EPR spectroscopy on day 17 after immunization, one day after treatment was terminated. […] We expect that the removal of NO by PTIO should not necessarily interfere with the induction of the response responsible for NO production and that as the supplied PTIO is used up NO levels should rapidly return to control values.
In contrast to SJL mice, SWX mice immunized with PLP undergo a progressive,often fatal form of EAE. Clinical symptoms manifest as an ascending paralysis approximately 13 days after immunization and the disease rapidly progresses to its fatal endpoint by days 16-20. […] We conclude that the amount of carboxy-PTIO we administered, especially considering the short in vivo half life of the compound, was only sufficient to delay the onset of the EAE in the SWXJ-14 mouse.
NO is not universally considered to be a molecule with significant in vivo toxicity and peroxynitrite is thought to be the more toxic molecule produced by activated inflammatory cells resulting from the interaction of NO and superoxide. We would henceforth expect that removal of NO would reduce peroxynitrite formation. To determine whether NO or peroxynitrite is more likely to be ultimately responsible for clinical disease in EAE we have performed a series of experiments using uric acid, a known scavenger of peroxynitrite, to treat EAE induced in SWXJ-14 mice by immunization with PLP.

[4] = mice, within 4 hours [17]; cited from earlier work

Structure (SMILES): CC1(C)N([O])C(c2ccccc2)=[N+]([O-])C1(C)C [PTIO, 2-phenyl-4,4,5,5-tetramethylimidazoline-1-oxyl-3-oxide]
- Side-effects [1]: without notable side-effects
- Improvement in clinical signs of surviving mice (FIG. 14) ([2]; at termination of the experiment): a number were actually beginning to show some improvement in the clinical signs of their disease
- Mice still alive (FIG. 14) ([2]; several days after day 18, 2 mg i.p. once daily day 5-13, two doses day 14, then three daily): 40%
- Water solubility (Water solubility): not water soluble
- Effectiveness when treatment is started after immunization [3]: effective when started 4-5 days after immunization with myelin antigens
- Amount accounted for in excretions [4]: Approximately 75%
